Reference: patent US9616129B2, “Compositions and methods for potentiating immune response, enhancing immunotherapy, and increasing vaccine potency” (Nitor Therapeutics, priority 2013, dated 2017)

Columns and labels:
interferon-a (IFN-a) = details: healthy volunteers; oral; cited from earlier work
HCV = details: chronically HCV infected patients; cited from earlier work
B16 tumors = assay: Syngeneic mouse melanoma model; assay type: in vivo, C57BL/6 mice; details: cyclophosphamide 100 mg/kg IP single dose
Procedure: Cancer cells were injected subcutaneously in right flank of each mouse, 1×10^4 cells in 0.1 ml PBS with 20% Matrigel. Treatment with the NTR001 was initiated on day 6 after injection of tumor cells. Tumor volume and survival were recorded every 3-4 days.

human TLR4 = biological target: T1, human TLR4 (Homo sapiens, UniProt O00206); assay: TLR ligand screening, NF-κB SEAP reporter in HEK293 cells expressing TLR4; assay type: cell-based; details: one concentration: Guanosine 100 uM, NTR001 10 uM, Inosine 100 uM; FIG. 2
T1 construct: expressed in transfected cells; host or cells: HEK293
T1 sequence (O00206 24-839): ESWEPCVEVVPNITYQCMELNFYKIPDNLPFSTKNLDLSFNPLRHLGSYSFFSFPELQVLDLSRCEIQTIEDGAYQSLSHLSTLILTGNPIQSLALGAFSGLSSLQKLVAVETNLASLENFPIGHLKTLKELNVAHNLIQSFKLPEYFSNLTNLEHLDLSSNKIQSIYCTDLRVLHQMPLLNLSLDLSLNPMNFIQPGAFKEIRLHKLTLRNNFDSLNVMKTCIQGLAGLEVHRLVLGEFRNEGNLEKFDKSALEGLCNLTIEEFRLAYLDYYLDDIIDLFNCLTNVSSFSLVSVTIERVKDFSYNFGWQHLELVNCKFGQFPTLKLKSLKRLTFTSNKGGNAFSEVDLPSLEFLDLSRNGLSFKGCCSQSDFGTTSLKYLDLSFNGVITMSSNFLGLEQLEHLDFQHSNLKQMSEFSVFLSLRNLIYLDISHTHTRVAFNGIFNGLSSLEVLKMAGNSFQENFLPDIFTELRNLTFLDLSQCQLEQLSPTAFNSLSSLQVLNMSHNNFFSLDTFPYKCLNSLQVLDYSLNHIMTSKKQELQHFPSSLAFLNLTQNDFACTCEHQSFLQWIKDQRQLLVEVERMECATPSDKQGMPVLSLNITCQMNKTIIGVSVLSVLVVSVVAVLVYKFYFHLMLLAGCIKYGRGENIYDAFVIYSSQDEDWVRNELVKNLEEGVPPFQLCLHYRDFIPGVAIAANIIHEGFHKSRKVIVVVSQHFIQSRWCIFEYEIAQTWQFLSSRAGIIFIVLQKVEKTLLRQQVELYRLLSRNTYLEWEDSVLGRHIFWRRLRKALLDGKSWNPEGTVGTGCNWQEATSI
T1 sequence (Q9Y6Y9 17-160 partner limits assumed): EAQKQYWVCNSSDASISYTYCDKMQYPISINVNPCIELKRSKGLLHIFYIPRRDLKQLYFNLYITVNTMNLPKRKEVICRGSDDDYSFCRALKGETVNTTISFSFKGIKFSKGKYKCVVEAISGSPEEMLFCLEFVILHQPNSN
Procedure: (§1) TLR stimulation is tested by assessing NF-κB activation in HEK293 cells expressing a given TLR. The Secreted Embryonic Alkaline Phosphatase (SEAP) reporter is under the control of a promoter inducible by the transcription factor NF-κB. This reporter gene allows the monitoring of signaling through the TLR, based on the activation of NF-κB. The compounds are evaluated at one concentration and compared to control ligands. This step is performed in triplicate.

human TLR2 = biological target: T2, human TLR2 (Homo sapiens, UniProt O60603); assay: TLR ligand screening, NF-κB SEAP reporter in HEK293 cells expressing TLR2; assay type: cell-based; details: one concentration: Guanosine 100 uM, NTR001 10 uM, Inosine 100 uM; FIG. 2
T2 construct: expressed in transfected cells; host or cells: HEK293
T2 sequence (O60603 21-784): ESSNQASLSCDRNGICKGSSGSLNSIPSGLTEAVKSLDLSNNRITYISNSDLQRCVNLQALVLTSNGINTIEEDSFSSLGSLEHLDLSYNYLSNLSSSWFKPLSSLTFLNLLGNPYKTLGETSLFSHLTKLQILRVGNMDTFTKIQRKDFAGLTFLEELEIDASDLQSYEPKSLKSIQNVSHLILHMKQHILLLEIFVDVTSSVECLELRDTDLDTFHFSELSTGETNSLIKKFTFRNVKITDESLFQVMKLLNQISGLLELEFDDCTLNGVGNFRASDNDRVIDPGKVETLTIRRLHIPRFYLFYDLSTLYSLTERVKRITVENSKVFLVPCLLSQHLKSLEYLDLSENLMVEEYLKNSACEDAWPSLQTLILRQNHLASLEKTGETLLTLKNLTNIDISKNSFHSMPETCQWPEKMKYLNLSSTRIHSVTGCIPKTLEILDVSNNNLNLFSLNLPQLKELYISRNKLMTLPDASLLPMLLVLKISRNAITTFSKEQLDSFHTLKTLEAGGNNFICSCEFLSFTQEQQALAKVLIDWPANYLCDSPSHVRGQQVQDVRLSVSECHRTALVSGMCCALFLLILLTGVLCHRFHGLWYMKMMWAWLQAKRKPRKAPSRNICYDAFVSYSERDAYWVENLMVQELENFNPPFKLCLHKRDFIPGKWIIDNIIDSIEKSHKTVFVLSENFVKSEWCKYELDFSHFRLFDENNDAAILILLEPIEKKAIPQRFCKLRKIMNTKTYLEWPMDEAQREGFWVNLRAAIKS
Procedure: as §1

tetanus toxoid vaccine = assay: Tetanus toxoid vaccine efficacy study (adjuvant) in mice; assay type: in vivo; details: compared to vehicle treated group
Procedure: Tetanus toxoid (TT) was used to vaccinate mice thrice, two weeks apart. Mice were treated by oral administration of compounds NTR001 and NTR002 and serum was collected at various time points for antibody titer and interferon-g analysis. Mice in Groups 2-6 (Table 2) are vaccinated subcutaneously with 0.1 ml tetanus toxoid vaccine on DAYS 0, 14 and 28. Mice in Group 1 (Table 1) received no vaccine. Antibody titers for DAYS 38 are determined by ELISA using tetanus toxoid coated microtiter plates and anti-mouse conjugate. Sera from DAY 30 are assayed by ELISA for interferon-g.

[1] = system: L. monocytogenes (ATCC Strain35152, hemolytic substrain); assay: Mouse model of L. monocytogenes infection; assay type: in vivo; details: Balb/c mice infected i.v. with 1×10^6 CFU; treatments per Table 3; FIGS. 7 and 9

For `CC(=O)O[C@@H]1C[C@@H](CO)O[C@H]1n1c(=O)sc2cnc(N)nc21` [ANA773], the “induction of endogenous interferon-a (IFN-a)” value (interferon-a (IFN-a)) is listed as “induce endogenous interferon-a (IFN-a) of multiple subtypes” and the “HCV RNA” value (HCV) is listed as “dose-dependent reduction”.

For `O=P1(N(CCCl)CCCl)NCCCO1` (centres unmarked) [Cycicophosphamide, Cyclophosphamide], the survival (B16 tumors) was 30%.

In the case of `Nc1nc2c(ncn2[C@@H]2O[C@H](CO)[C@@H](O)[C@H]2O)c(=O)[nH]1` [Guanosine], the “stimulatory effect on human TLR4 (NF-κB activation)” value (human TLR4) is reported as “significant stimulatory effect” and the “stimulatory effect on human TLR2 (NF-κB activation)” value (human TLR2) is reported as “significant stimulatory effect”.

For `O=c1[nH]cnc2c(CN3C[C@H](CO)[C@@H](O)C3)c[nH]c12` [NTR002, 1,5-dihydro-7-[[(3R,4R)-3-hydroxy-4-(hydroxymethyl)pyrrolidin-1-yl]methyl]-4H-pyrrolo[3,2-d]pyrimidin-4-one], the serum interferon-g (tetanus toxoid vaccine; day 30, ELISA, high dose group 60 mg/kg p.o., FIG. 4) was “elevated”, the “serum tetanus toxoid antibody titers” value (tetanus toxoid vaccine; day 38, ELISA, p.o. 30 mg/kg (6 days of treatment) and 60 mg/kg (3 days of treatment), FIG. 3) was “significantly elevated” and the weight loss [1] was “significant decrease”.
